# Assays:
# [1] = organism: Homo sapiens; experiment: Compound was tested for inactivation of monoclonal antibody complex (MAO B - MAO B 1C2) from human autopsy liver
# [2] = organism: Homo sapiens; experiment: Compound was tested for inhibition of monoclonal antibody complex (MAO B - MAO B 1C2) from human autopsy liver expressed as specific activity
# [3] = organism: Homo sapiens; experiment: Compound was tested for inactivation of monoclonal antibody complex Monoamine oxidase B from human autopsy liver
Compound,k' [1],Specific activity (nM min-1 mg-1) [2],k' [3]
CC1=C(c2ccccc2)CCN(C)C1,0 min⁻¹,5.3,
CN1CC=C(c2ccccc2)CC1,0.0264 min⁻¹,85.2,
C1=C(c2ccccc2)CCN(CCc2ccccc2)C1,,0,0 min⁻¹
CC1CN(C)CC=C1c1ccccc1 (stereo not drawn),0 min⁻¹,11.4,

# Reference: ChEMBL document CHEMBL1123421, “Interaction of monoamine oxidase B with analogues of 1-methyl-4-phenyl-1,2,3,6-tetrahydropyridine derived from prodine-type analgesics” (J Med Chem, 1986)
